Common to all, as to type: biochemical
For one test, the target named is CDK2/CycA2 (Homo sapiens, UniProt P24941). The experiment in a line: In vitro kinase TR-FRET assay CDK2/CycA2. As to conditions: enzyme 3 nM, ATP 27 μM, read-out: CDK2 cyclinA2 activity assay: IC50. How it is done:
(§1) In vitro kinase TR-FRET assays: CDK2/CycA2, CDK2/CycE1, CDK1/cyclinB and GSK3β
(§2) The test compounds were prepared as 10 mM stock solution in 100% DMSO. The stock solution was then serially diluted 3-fold in 100% DMSO to 10 concentrations. 200 nL of each diluted compound solution was transferred to 384-well plate in duplicate. To each well, 5 uL of enzyme and ATP mixture solution containing enzyme CDK2/CycA2, CDK2/CycE1, CDK1/cyclinB, or GSK30 (final concentrations 3 nM, 0.6 nM, 0.3 nM, 0.6 nM, respectively) and ATP (final concentrations 27 μM, 82 μM, 56 μM, 7.6 μM, respectively) in the assay buffer (50 mM HEPES, pH7.5, 10 mM MgCl2, 1 mM DTT, 0.01% BSA, 0.01% Triton X-100). For negative control, 5 uL of assay buffer was added instead. The plate was incubated at room temperature for 10 min. 5 uL of peptide solution containing ULight-4E-BP1 peptide (final concentrations 50 nM) in the assay buffer was subsequently added into each well to initiate the reaction. By incubation at room temperature for 1 hour, 10 uL of 2 nM Eu-anti-phospho-4E BP1 antibody was then added for detection. After one hour incubation at room temperature, all samples were subjected to read the TR-FRET signal on Envision with excitation at 340 nm and emission fluorescence at 615 nm and 665 nm. IC50 values were then calculated by plotting dose-response curves and then using the XLfit application in Excel software.
(In general: TR-FRET usually uses a lanthanide donor and a delayed reading to cut background.)

For a further test, the target named is GSK3β (Homo sapiens, UniProt P49841). The test is described as follows: In vitro kinase TR-FRET assay GSK3β. To be noted: enzyme 0.6 nM, ATP 7.6 μM. How it is done:
as §1, §2

For another test, the target named is CDK1/cyclinB (Homo sapiens, UniProt P06493). The test is described as follows: In vitro kinase TR-FRET assay CDK1/cyclinB. To be noted: enzyme 0.3 nM, ATP 56 μM. How it is done:
as §1, §2

For another test, the target named is CDK2/CycE1 (Homo sapiens, UniProt P24941). The test is described as follows: In vitro kinase TR-FRET assay CDK2/CycE1. As to conditions: enzyme 0.6 nM, ATP 82 μM, read-out: CDK2 cyclinE1 activity assay: IC50. How it is done:
as §1, §2

Each structure is given as a SMILES string. pIC50: −log10 of the molar value. A value given as a limit tells only on which side of the number the result lay.

Chain of CDK1/cyclinB (P06493 whole entry): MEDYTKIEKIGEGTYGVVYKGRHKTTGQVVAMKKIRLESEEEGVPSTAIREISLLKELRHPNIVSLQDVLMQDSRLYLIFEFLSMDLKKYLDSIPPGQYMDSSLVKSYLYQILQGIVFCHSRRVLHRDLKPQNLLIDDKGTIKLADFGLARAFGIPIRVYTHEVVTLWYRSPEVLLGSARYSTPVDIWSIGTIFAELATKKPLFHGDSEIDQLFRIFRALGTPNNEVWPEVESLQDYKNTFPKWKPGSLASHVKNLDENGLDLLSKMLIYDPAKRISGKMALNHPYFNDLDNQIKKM
Chain of CDK1/cyclinB (P14635 whole entry partner): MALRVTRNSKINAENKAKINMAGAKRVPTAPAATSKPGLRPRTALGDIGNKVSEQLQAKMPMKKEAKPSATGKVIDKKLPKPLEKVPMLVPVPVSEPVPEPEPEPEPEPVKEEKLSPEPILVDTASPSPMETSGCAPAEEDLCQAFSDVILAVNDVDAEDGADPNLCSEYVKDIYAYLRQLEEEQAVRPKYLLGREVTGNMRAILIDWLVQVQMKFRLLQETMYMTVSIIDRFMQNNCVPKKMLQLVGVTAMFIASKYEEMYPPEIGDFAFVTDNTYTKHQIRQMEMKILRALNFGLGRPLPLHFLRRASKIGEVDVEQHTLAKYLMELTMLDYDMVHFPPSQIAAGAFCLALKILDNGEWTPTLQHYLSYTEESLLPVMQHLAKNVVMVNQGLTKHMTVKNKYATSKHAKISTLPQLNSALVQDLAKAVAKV
Chain of GSK3β (P49841 whole entry, species assumed): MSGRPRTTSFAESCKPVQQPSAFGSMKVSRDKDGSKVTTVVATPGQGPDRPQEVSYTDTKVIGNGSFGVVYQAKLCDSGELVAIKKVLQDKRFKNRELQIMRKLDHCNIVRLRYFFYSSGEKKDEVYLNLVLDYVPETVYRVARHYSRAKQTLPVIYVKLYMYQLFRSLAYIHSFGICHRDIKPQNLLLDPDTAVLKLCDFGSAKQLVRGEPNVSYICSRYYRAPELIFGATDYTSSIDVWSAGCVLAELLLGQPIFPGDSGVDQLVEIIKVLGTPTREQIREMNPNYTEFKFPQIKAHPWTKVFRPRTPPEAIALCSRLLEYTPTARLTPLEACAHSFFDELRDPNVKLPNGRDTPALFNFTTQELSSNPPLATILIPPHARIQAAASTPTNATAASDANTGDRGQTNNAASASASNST

As to `CC(C)NC(=O)O[C@@H]1CC[C@H](c2[nH]nc(Nc3ccc4c(c3)CNS4(=O)=O)c2F)C1` [Example 14, (1R,3S)-3-(3-((1,1-dioxido-2,3-dihydrobenzo[d]isothiazol-5-yl)amino)-4-fluoro-1H-pyrazol-5-yl)cyclopentyl isopropylcarbamate], the pIC50 (as a rule, the negative decadic logarithm of the IC50, by convention in mol/L) was above 7.30 on CDK2/CycA2, below 6.00 against GSK3β, 6.30 to 7.30 on CDK1/cyclinB and above 7.30 on CDK2/CycE1.
In the case of `Cc1c(Nc2ccc3c(c2)CS(=O)(=O)C3)n[nH]c1[C@H]1CC[C@@H](OC(=O)NC(C)(C)C)C1` [Example 44, (1R,3S)-3-{5-[(2,2-dioxo-1,3-dihydro-2%6-benzo[c]thiophen-5-yl)amino]-4-methyl-2H-pyrazol-3-yl}cyclopentyl [(2-methylprop-2-yl)amino]methanoate], the pIC50 on CDK2/CycA2 was 6.30 to 7.30; at GSK3β, below 6.00; on CDK1/cyclinB, below 6.00; on CDK2/CycE1, 6.30 to 7.30.
`CC(C)NC(=O)O[C@@H]1CC[C@H](c2cc(Nc3cccc4c3CS(=O)(=O)N4)n[nH]2)C1` [Example 48, (1R,3S)-3-(3-((2,2-dioxido-1,3-dihydrobenzo[c]isothiazol-4-yl)amino)-1H-pyrazol-5-yl)cyclopentyl isopropylcarbamate]: the pIC50 at CDK2/CycA2 was 6.30 to 7.30; at GSK3β it was below 6.00; against CDK1/cyclinB it was below 6.00; at CDK2/CycE1, 6.30 to 7.30.
Take `O=C(NC1CC1)O[C@@H]1CC[C@H](c2cc(Nc3nccc4c3CCS4(=O)=O)n[nH]2)C1` [Example 71, (1R,3S)-3-{5-[(1,1-dioxo-2,3-dihydro-1λ^6-thieno[3,2-c]pyridin-4-yl)amino]-2H-pyrazol-3-yl}cyclopentyl (cyclopropylamino)methanoate]: the pIC50 is above 7.30 at CDK2/CycA2, 6.30 to 7.30 against GSK3β, 6.30 to 7.30 against CDK1/cyclinB and above 7.30 on CDK2/CycE1.
For the molecule `CC(C)NC(=O)O[C@@H]1CC[C@H](c2cc(Nc3ccc4c(c3)S(=O)(=O)CCC4)n[nH]2)C1` [Example 39, (1R,3S)-3-(3-((1,1-dioxidothiochroman-7-yl)amino)-1H-pyrazol-5-yl)cyclopentyl isopropylcarbamate], the pIC50 is above 7.30 on CDK2/CycA2, 6.30 to 7.30 at GSK3β, 6.30 to 7.30 against CDK1/cyclinB and above 7.30 at CDK2/CycE1.
Regarding `CC(C)NC(=O)O[C@@H]1CC[C@H](c2cc(Nc3ccc4c(c3)C(=O)NC4)n[nH]2)C1` [Example 20, (1R,3S)-3-{5-[(3-oxo-2,3-dihydro-1H-isoindol-5-yl)amino]-2H-pyrazol-3-yl}cyclopentyl (prop-2-ylamino)methanoate], the pIC50 at CDK2/CycA2 was above 7.30; at GSK3β, below 6.00; against CDK1/cyclinB, 6.00 to 6.30; at CDK2/CycE1 it was above 7.30.
Consider `Cc1c([C@@H]2CC[C@H](OC(=O)NC(C)C)C2)n[nH]c1Nc1ccc2c(c1)CCS2(=O)=O` (racemic) [Example 24, cis 3-{5-[(1,1-dioxo-2,3-dihydro-1λ6-benzothiophen-5-yl)amino]-4-methyl-1H-pyrazol-3-yl}cyclopentyl (prop-2-ylamino)methanoate], for which the pIC50 on CDK2/CycA2 is 6.00 to 6.30; against GSK3β, below 6.00; against CDK1/cyclinB, below 6.00; at CDK2/CycE1, 6.30 to 7.30.
As to `CC(C)NC(=O)O[C@@H]1CC[C@H](c2cc(Nc3cccc4c3N(C)S(=O)(=O)C4)n[nH]2)C1` [Example 51, (1R,3S)-3-{5-[(1-methyl-2,2-dioxo-1,3-dihydro-2λ^6-benzo[2,1-c][1,2]thiazol-7-yl)amino]-2H-pyrazol-3-yl}cyclopentyl (prop-2-ylamino)methanoate], the pIC50 was 6.00 to 6.30 at CDK2/CycA2, below 6.00 at GSK3β, 6.30 to 7.30 against CDK1/cyclinB and 6.30 to 7.30 at CDK2/CycE1.

(Values after patent publication US20240246950A1, “Anilino-Pyrazole Derivatives, Compositions and Methods Thereof” (Ensem Therapeutics, priority 2022, published 2024).)
